Among the data in a melting point compilation (Tetko et al.; mined from patent text by program, amines drawn as free bases though some values may be those of a salt) are melting point values, retold here.

Usually melting point stands for the temperature, or range, at which the solid turns liquid.

For the compound `C=CC(=O)Nc1ccc2ccc(Cl)nc2n1`, the melting point stood at 200 °C.

With `FC(F)(F)c1cc(-c2ccc(Cl)cc2)nc2c(-c3ccncc3)ncn12`, the melting point was 290 °C.

In the case of `CC(=O)Nc1c(C#N)cnn1-c1c(Cl)cc(C(F)(F)F)c(Cl)c1Cl`, the melting point was 177 to 178 °C.

`Nc1ccc(OCc2ccc(Cl)cc2)cc1F` registered a melting point of 73 to 75 °C.

`CCOc1nc2cc(C)nn2c2c1cnc1c2cnn1CC` came in with a melting point of 142 to 144 °C.

With `Cn1c2ccccc2c2nc3c(C=O)cccc3nc21`, the melting point fell in the range of 219 to 220 °C.

Take `CCOC(=O)C1=CC(C2CC2)c2c(ccc(-c3cc4c(s3)C(O)CCC4)c2OC)C1=O` (centres undefined): the melting point is 183 to 185 °C.

Turning to `CON1C(C)(C)CC(OC(=O)C2=C(c3ccccc3)C(c3ccccc3)OC2=O)CC1(C)C` (centres undefined), the melting point was in the range of 143 to 146 °C.

`CS(=O)c1ccc(Oc2ccc(Cl)c(Cl)c2)nc1` (centres undefined) yielded a melting point of 88 to 90 °C.

As to `Cc1ccc(-c2cc(NCCNc3cc(-c4cccs4)[nH]n3)n[nH]2)cc1`, the melting point was determined as 148 °C.

As to `OCC12OC1CC(OCc1ccccc1)C2COCc1ccccc1` (centres undefined), the melting point was in the range of 60 to 62 °C.

`O=c1[nH]nc(-c2c(Cl)ccc3cc(Cl)cnc23)o1` came in with a melting point of 87 °C.

The compound `CC(=O)OC1CSC(Oc2cnccc2C#N)C(OC(C)=O)C1OC(C)=O` (centres undefined) yielded a melting point of 167 °C.

Take `NC(Cc1cc2nccnc2cc1CP(=O)(O)O)C(=O)O` (centres undefined): the melting point is 250 °C.

`CCCNC(=O)n1c(=O)cc2n1C(c1cccc([N+](=O)[O-])c1)C(C(=O)OC(C)C)=C(C)N2` (centres undefined) had a melting point of 160 to 163 °C.

The compound `NC(=O)COc1ccccc1C(=O)Nc1ccc(C(=O)N2CCCCc3ccccc32)cc1` displayed a melting point of 198 to 199 °C.

In turn, `CCc1cc(C(=O)c2ccccc2Cl)c(-n2c(C)nnc2CNC(=O)c2cccc(C(=O)O)c2)s1` had a melting point of 133 to 136 °C.

Consider `CCCCOc1cc(/C=C(\OCC)C(=O)O)ccc1OCCc1ccc(OS(C)(=O)=O)c(OC)c1`, for which the melting point is 97 °C.

For the compound `O=C(O)C1=Cc2cc(S(=O)(=O)Cc3ccccc3)ccc2OC1C(F)(F)F` (centres undefined), the melting point was in the range of 172 to 176 °C.

In turn, `CC(=O)NC1CCS(=O)(=O)c2sc(S(N)(=O)=O)cc21` (centres undefined) returned a melting point of 263 to 265 °C.

Regarding `Cn1c(CCNC(=O)OCc2ccccc2)nc(-c2ccncn2)cc1=O`, the melting point fell in the range of 121 to 123 °C.

For `O=C(NCCCCN1CCC(c2ccc3c(c2O)CCCC3)CC1)c1ccc(-c2ccc(C(F)(F)F)cc2)cc1`, the melting point lay within 220 to 222 °C.

Compound `COc1cc2c(cc1OC)/C(=N/OCc1ccc3nonc3c1)CC2` came in with a melting point of 163 to 166 °C.

In turn, `CCCCC(=N)NC(=O)Nc1ccccc1OCc1ccccc1` displayed a melting point of 145 to 147 °C.

Regarding `CCc1ncc(CCCOc2c(C)cc(-c3nnn(C)n3)cc2C)n1C`, the melting point was 96 to 98 °C.

Compound `O=c1cc(-c2ccccc2)cc[nH]1` showed a melting point of 226 to 230 °C.

In the case of `CC(C#Cc1ccc(Oc2ccccc2)cc1)N(O)C(N)=O` (centres undefined), the melting point was 141 to 142 °C.

Compound `O=C(O)c1sc(C(F)(F)F)cc1OCc1ccccc1` came in with a melting point of 142 to 144 °C.

In turn, `CCCCS(=O)(=O)N1C(SCc2ccc(OC)cc2)=NC(C)(c2cccc([N+](=O)[O-])c2)C(C)(C(=O)OCC)C1c1cccc([N+](=O)[O-])c1` (centres undefined) gave a melting point of 66 to 68 °C.

As to `Cc1ccc(P(=O)(C(=O)c2c(C)cc(C)cc2C)C(=O)c2c(C)cc(C)cc2C)cc1`, the melting point was 151 to 152 °C.

`N#CCc1ccc(CCOc2ccc([N+](=O)[O-])cc2)nc1` showed a melting point of 94 to 95 °C.

The compound `CC(C)Oc1ccc([N+](=O)[O-])cc1O` came in with a melting point of 139 °C.

Turning to `CC(C)OC(=O)Cc1nc(-c2ccccc2)oc1-c1ccsc1`, the melting point lay within 62 to 63 °C.

Consider `NC(=O)Cc1cc(Oc2ccc3c(ccn3C(=O)Nc3ccc(CN4CCCC4)c(C(F)(F)F)c3)c2)ncn1`, for which the melting point lay in the range of 123 to 124 °C.

In turn, `Cc1ccc(CSc2nc3cc4c(cc3[nH]2)OCCO4)nc1` came in with a melting point of 155 to 156 °C.

In turn, `CCC1=NN=C(c2ccc(OC)c(OC)c2)c2cc(OC)c(OC)cc2C1CC` (centres undefined) returned a melting point of 142 to 144 °C.

Consider `Nc1sc(-c2ccc(F)cc2)cc1C(=O)O`, for which the melting point lay within 172 to 174 °C.

Regarding `CCCCc1nc(S(C)(=O)=O)c(C(=O)O)n1Cc1ccc(-c2ccccc2C(=O)O)cc1`, the melting point is 196 °C.

The compound `O=C(O)c1cc2cc(Cl)ccc2nc1NC(Cc1c[nH]c2cc(F)ccc12)C(=O)O` (centres undefined) had a melting point of 170 to 174 °C.

`C=CCNC(=O)NS(=O)(=O)c1ccccc1OC(Cl)=CCl` had a melting point of 187 to 188 °C.

In the case of `CNc1cc(C(=O)CS(C)(=O)=O)cc(NC)c1Cl`, the melting point was in the range of 165 to 167 °C.

Compound `CCc1nc2c(N)nc3ccccc3c2n1CCOCCNC(=O)Nc1ccccc1` registered a melting point of 141 to 144 °C.

`C(=C\c1nc2ccccc2n1-c1cccnc1)/c1ccccc1` returned a melting point of 118 °C.

For the compound `CC(C)=CCC/C(C)=C/CC/C(C)=C/C(N)=O`, the melting point is 53 to 53.5 °C.

For `CN1CC2(COc3cc4c(cc32)OCO4)c2c(Br)cccc21` (centres undefined), the melting point lay in the range of 155 to 157 °C.

The compound `O=C1c2c(O)cccc2C(=CCc2ccccc2)c2cccc(O)c21` came in with a melting point of 128 to 129 °C.

`CN(C)C=C(C=C(C#N)C(=O)OC(C)(C)C)c1cccnc1` showed a melting point of 161 to 163 °C.

The compound `NC(=O)c1c(Cl)c(-c2ccccc2)n2c1CN(C(=O)Nc1ccc(C(=O)O)cc1)CC2` displayed a melting point of 281 to 283 °C.

`CCCc1c(OCCCOc2ccc(N)cc2)ccc2c1OC(CCC(=O)OCC)(CCC(=O)OCC)CC2=O` had a melting point of 126 to 127 °C.

With `O=C(Cn1c(-c2ccc(Cl)cc2)nc2cccnc21)N(c1ccccc1)c1ccccc1`, the melting point was in the range of 176 to 178 °C.

In turn, `N#Cc1ccc2sc(CBr)nc2c1` had a melting point of 185 to 186 °C.

`CC(C)C1C(=O)N(c2ccc(N=Nc3ccc(N(C)C)cc3)cc2)C(=S)N1C` (centres undefined) showed a melting point of 164 to 169 °C.

`Cc1ccc(C)n1-c1ccc(Br)cn1` registered a melting point of 69 °C.

On to `COc1ccc(Nc2nc(Cl)nc(OCC3CCCCC3)n2)cc1F`, for which the melting point turned out to be 98 °C.

Consider `O=S(=O)(Nc1ncnc(Cl)c1-c1ccc(C(F)(F)F)cc1)c1ccc(Cl)cc1`, for which the melting point fell in the range of 262 to 264 °C.

As to `CCCCOc1c(N(C)C(=O)OC(C)(C)C)n(CC(C)C)c(=O)c2ccc(-n3cnnn3)cc12`, the melting point lay within 199 to 200 °C.

On to `CC(C)(C)NC(=O)c1cnc(Cl)cc1-c1ccc(F)cc1`, for which the melting point was in the range of 168 to 173 °C.

For `NC(=O)CCCCCCCCCCCNC(N)=NC(=O)c1nc(Cl)c(N)nc1N`, the melting point lay in the range of 192 to 194 °C.

Take `CC(C)(CO)CNC(=O)c1n[nH]cc1NC(=O)c1ccccn1`: the melting point is 217 to 218 °C.

`COC(=O)N1CCC(c2ccccc2)C(O)C1` (centres undefined) gave a melting point of 139 to 140 °C.

In the case of `O=C1Nc2cc(Cl)ccc2C(=O)C1c1ccsc1` (centres undefined), the melting point was 341 to 344 °C.

In turn, `CS(=O)(=O)N1CCN(c2cc(Cl)ncn2)CC1` yielded a melting point of 200 to 202 °C.

Compound `COc1ccc(CCNC(=O)C=Cc2cccs2)cc1S(=O)(=O)NC(=S)NC(C)C` displayed a melting point of 96 °C.

With `CCC(=O)C(C=O)=Cc1cc(O)c(O)c(C#N)c1`, the melting point lay within 228 to 232 °C.

For the compound `CC(C)S(=O)(=O)O[C@H]1C[C@@H](C(=O)O)N(C(=O)c2ccccc2Br)C1`, the melting point was 139 to 140 °C.

`O=C(O)CCCCCCc1ccc(CCNC(=O)c2ccc(Cl)cc2)cc1` gave a melting point of 140 to 143 °C.

For `Cn1c(CC(=O)O)ccc1C(=O)c1ccc(C(F)(F)F)cc1`, the melting point was in the range of 152 to 154 °C.

On to `Cc1cc(C)c(C(C)(CO)c2ccc(C(C)C)cc2)c(O)c1C` (centres undefined), for which the melting point was in the range of 116 to 117 °C.

As to `CCOC(=O)C=Cc1ccc([N+](=O)[O-])c(C)c1`, the melting point was 90 to 92 °C.

Regarding `Cc1cc(-c2cnn3c(C(F)(F)F)cc(-c4ccc(C(F)(F)F)c(C(F)(F)F)c4)nc23)ccn1`, the melting point came out at 223 °C.

For the compound `CC(O)c1nccc(=O)[nH]1` (centres undefined), the melting point lay within 121 to 124 °C.

`COC(=O)C[C@H](O)C[C@H](O)CCc1c(-c2ccc(F)cc2)c(-c2ccc(F)cc2)c(C(=O)Nc2cccc(C(=O)N(C)C)c2)n1C(C)C` had a melting point of 95 to 98 °C.

For the compound `Cc1cc(C)c(=O)n(C(C(=O)O)c2ccc3c(c2)OCO3)n1` (centres undefined), the melting point was determined as 165 °C.

For `COC(=O)c1cc(C(=O)NCCF)c2cc(Cc3ccc(F)cc3)cnc2c1O`, the melting point was in the range of 216 to 217 °C.

In turn, `Cc1ccc2c(N)nc(-c3cccc4ccccc34)cc2c1` gave a melting point of 170 °C.

As to `O=C(O)C(=O)Nc1cc(NC(=O)C(=O)O)cc(C(=O)O)c1`, the melting point was over 320 °C.

`NNC(=O)c1cc2cc(Cl)ccc2s1` displayed a melting point of 90 to 91 °C.

On to `CC(C)(O)CCCCCc1cccc(CCc2cc(O)cc(O)c2)c1`, for which the melting point was 102 to 103 °C.

In the case of `CC(C(=O)OC(C)(C)C)c1ccc(N2Cc3ccc(Cl)cc3C2=O)cc1` (centres undefined), the melting point fell in the range of 169 to 171 °C.

`Cc1cc(=O)[nH]nc1-c1cccc(C(F)(F)F)c1` had a melting point of 224 to 227 °C.

`Cc1[nH]c(C#N)c(C)c1-c1nc2ccc(Oc3ccccc3)cc2[nH]1` yielded a melting point of 278 to 280 °C.

`Cc1cc(C(=S)NCc2ccc(Br)cc2F)c(OCC(=O)O)cc1F`: the melting point lay within 162 to 164 °C.

For the compound `CC(C)COC(=O)c1ccc(N)cc1N`, the melting point was 54 to 55 °C.

`CN(C)S(=O)(=O)c1cc(-c2csc(=Nc3ccccc3)n2C)ccc1Cl` displayed a melting point of 180 °C.

On to `COC1CC(NC(=O)C(F)(F)F)C(C)(O)C(C)O1` (centres undefined), for which the melting point lay in the range of 133 to 134 °C.

As for `CSc1sc(C(N)=O)c2c1-c1sc(C(N)=O)cc1CC2`, the melting point is over 300 °C.

Turning to `OCc1ncn(CCCc2ccc(OCc3coc(/C=C/c4ccccc4)n3)cc2)c1CO`, the melting point is 146 to 148 °C.

`CC(C)c1nc(CN=[N+]=[N-])n(Cc2cccnc2)c1Sc1cc(Cl)cc(Cl)c1` registered a melting point of 99 to 103 °C.

Compound `COCCO[C@@H]1c2ccn3c(-c4ccccc4)c(C)nc3c2N[C@H](c2ccccc2)[C@H]1O` gave a melting point of 190 to 192 °C.
